Experimental findings from ChEMBL document CHEMBL5136999, “Contemporary Medicinal Chemistry Strategies for the Discovery and Development of Novel HIV-1 Non-nucleoside Reverse Transcriptase Inhibitors” (J Med Chem, 2022) are described below.

In one series the test system is HOS. Description: Cytotoxicity against human HOS cells assessed as reduction in cell viability measured after 48 hrs. It is filed as functional.
Series [1] can be described thus: Cytotoxicity against human MT4 cells assessed as cell viability by MTT assay. The class given is toxicity, cell-based. (In general: Formazan colour is commonly taken as a measure of viable cells.)
Series [2] can be described thus: Metabolic stability in human liver microsomes assessed as clearance. As to conditions: read-out: CLH. The class given is ADME, Microsome. (In general: Microsomes from liver hold many membrane-bound enzymes, among them those of drug oxidation.)
Series [3] in a line: Oral bioavailability in Sprague-Dawley rat at 5 mg/kg measured up to 24 hrs by LC-MS analysis. The class given is ADME, organism-based. As to conditions: in vivo.
In series [4] the test system is Human immunodeficiency virus 1. In words: Antiviral activity against wild type HIV-1 IIIB infected in human MT4 cells assessed as protection against virus-induced cytopathicity by MTT assay. It is filed as functional, organism-based. The conditions noted are these: Human immunodeficiency virus 1, IIIB. (Cytopathic effects are the visible damage that an infection or toxin causes in cultured cells.)

Series [5] deals with Human immunodeficiency virus 1. Description: Antiviral activity against HIV-1 harboring K103N mutant infected in human MT4 cells assessed as protection against virus-induced cytopathicity by MTT assay. The class given is functional, organism-based. The conditions noted are these: Human immunodeficiency virus 1, MT4.
In series [6] the test system is Human immunodeficiency virus 1. Description: Antiviral activity against HIV-1 harboring E138K mutant infected in human MT4 cells assessed as protection against virus-induced cytopathicity by MTT assay. The class given is functional, organism-based. The conditions noted are these: Human immunodeficiency virus 1, MT4.
The nature of series [7]: Metabolic stability in rat liver microsomes assessed as clearance. The class given is ADME, Microsome. The conditions noted are these: read-out: CLH.
Series [8] deals with Human immunodeficiency virus 1. Description: Antiviral activity against wild type HIV-1 IIIB infected in human MT2 cells assessed as protection against virus-induced cytopathicity. It is filed as functional, organism-based. The conditions noted are these: Human immunodeficiency virus 1, IIIB.
Series [9] deals with Human immunodeficiency virus 1. In words: Antiviral activity against HIV-1 harboring K103N/Y181C mutant infected in human MT2 cells assessed as protection against virus-induced cytopathicity. It is filed as functional, organism-based. The conditions noted are these: Human immunodeficiency virus 1, MT2.
Series [10] has as its system Human immunodeficiency virus 1. In words: Antiviral activity against HIV-1 harboring Y181C mutant infected in human MT2 cells assessed as protection against virus-induced cytopathicity by MTT assay. The conditions noted are these: Human immunodeficiency virus 1, MT2. It is filed as functional, organism-based.
Series [11] relates to Human immunodeficiency virus 1. Description: Antiviral activity against HIV-1 harboring K103N/Y181C mutant infected in human MT2 cells assessed as protection against virus-induced cytopathicity by MTT assay. The class given is functional, organism-based. The conditions noted are these: Human immunodeficiency virus 1, MT2.
Series [12] is described as follows: Cytotoxicity against human MT2 cells assessed as cell viability. The class given is toxicity, cell-based.
The subject of series [13] is Human immunodeficiency virus 1. Description: Antiviral activity against wild type HIV-1 IIIB infected in human MT2 cells assessed as protection against virus-induced cytopathicity by MTT assay. The class given is functional, organism-based. The conditions noted are these: Human immunodeficiency virus 1, IIIB.
The subject of series [14] is Human immunodeficiency virus 1. In words: Antiviral activity against HIV-1 harboring K101P mutant infected in human MT2 cells assessed as protection against virus-induced cytopathicity by MTT assay. The class given is functional, organism-based. The conditions noted are these: Human immunodeficiency virus 1, MT2.

The term CC50 denotes the concentration at which the toxic effect on the cells reaches its halfway point. What is called bioavailability is the share of a dose that reaches the circulation, judged against a reference dose that is usually intravenous. A low value points to little systemic uptake. One may read the EC50 as the concentration at which the effect is half-maximal.

Each structure is given as a SMILES string. A value given as a limit tells only on which side of the number the result lay.

On to `Cc1cc(/C=C/C#N)cc(C)c1-n1cnc2cnc(Nc3ccc(C#N)cc3)nc21`, for which the CC50 with HOS was 42000 nM.
In the case of `Cc1cc(/C=C/C#N)cc([N+](=O)[O-])c1Nc1nc(Nc2ccc(C#N)cc2)nc2ccccc12`, in series [1], the CC50 stood at 6140 nM. Moreover, the results for the microsomal CLint in series [2] and in [7] were 34.5 µL/min/mg and 33.2 µL/min/mg, respectively. In series [3], the bioavailability came to 16.5%. Also, the figures for the 50% effective concentration (EC50) in series [4], in series [5] and in series [6] were 3.4 nM, 3.6 nM and 4.3 nM, respectively.
On to `O=C1Nc2ccc(Cl)cc2[C@@](C#CC2CC2)(C(F)(F)F)O1` [EFAVIRENZ], for which the CC50 in [1] was greater than 40200 nM. The EC50 in series [4] was determined as 3.2 nM; in [5] it was 147 nM.
Turning to `Cc1cc(C#N)cc(C)c1Oc1nc(Nc2ccc(C#N)cc2)nc(N)c1Br` [ETRAVIRINE], in series [1], the CC50 is greater than 4620 nM. The EC50 was 3.5 nM in series [5] and 10.9 nM in series [6].
As to `Cc1cc(/C=C/C#N)cc(C)c1Nc1ncc2ncn(-c3ccc(C#N)cc3)c2n1`, in the series on HOS, the CC50 amounted to 21000 nM.
Take `C=CC(=O)N(C)c1cc(Oc2ccccc2OCCn2ccc(=O)[nH]c2=O)c(C)c2cc(C#N)ccc12`: the EC50 in series [8] stood at 560 nM; in series [9] it was 500 nM.
As for `Cc1ccnc2c1NC(=O)c1cccnc1N2C1CC1` [NEVIRAPINE], the EC50 in [10] and in series [11] was greater than 100000 nM each time.
`Cc1cc(/C=C/C#N)cc([N+](=O)[O-])c1Nc1nc(Nc2ccc(C#N)cc2)nc2ccc(Cl)cc12`: the CC50 in series [1] is 3950 nM. For the same compound, the microsomal CLint in [2] turned out to be 14.4 µL/min/mg; in series [7], 30.6 µL/min/mg. Moreover, in series [3], the bioavailability was 15.5%. The EC50 in series [4] was determined as 10.6 nM; in series [5], 10.2 nM; in series [6] it was 17.7 nM.
`Cc1c(Oc2ccccc2OCCn2ccc(=O)[nH]c2=O)cc(Cl)c2ccc(C#N)cc12`: the CC50 in series [12] was greater than 100000 nM. The results for the 50% effective concentration (EC50) in [8] and in series [9] were 6.2 nM and 280 nM, respectively.
On to `N#Cc1cc2c(Oc3ccccc3OCCn3ccc(=O)[nH]c3=O)cccn2c1`, for which the EC50 stood at 310 nM in series [10], 380 nM in series [13], 11 nM in [11] and 1 nM in series [14].
Regarding `Cc1cc(/C=C/C#N)cc(C)c1Nc1ccnc(Nc2ccc(C#N)cc2)n1` [RILPIVIRINE], the CC50 in the series on HOS is 10000 nM.
Turning to `Cc1c(Oc2ccccc2OCCn2ccc(=O)[nH]c2=O)cc(N(C)C(=O)CCl)c2ccc(C#N)cc12`, the EC50 in series [8] stood at 580 nM; in series [9] it was 570 nM.
